{"source": "patent US4895937A", "about": "“5-ioso-2-pyrimidinone nucleoside” (The Research Foundation of State University of New York, priority 1988, dated 1990)", "key": {"[1]": {"system": "HSV-2 (333)", "assay": "Virus titer in HSV-2 infected HeLa cells, 24 hours post infection (Example 5)", "type": "cell-based, herpes simplex type 2", "conditions": "control 1.2 × 10^7", "description": "(§1) In accordance with the present invention, 1-(2-Deoxy-β-D-ribofuranosyl)-5-(methylmercapto)-2-pyrimidinone is prepared essentially in accordance with the procedure set forth in \"Snythesis and Antiviral Activity of 1-(2-Deoxy-β-D-ribofuranosyl)-5-(methylmercapto)-2-pyrimidinone\" by Schroeder and Bardos and Cheng, Volume 24, page 109, January 1981. HeLa cells were infected in 1640 RPMI medium with herpes simplex type 1 (HSV-1) and independently with herpes simplex type 2 (HSV-2) virus at a multiplicity of 5 to 10 plaque forming units per cell. The composition of 1640 RPMI medium is reported in \"Biological Activity of 5 Ethyl, 5 Propyl, and 5 Vinyl 2'-Deoxyuridine\" by Cheng et al published in Antimicrobial Agents and Chemotherapy, Volume 10, beginning at page 119 (1976). 1640 RPMI medium is commercially available from Gibco Company, Grand Island, N.Y. After 1 hour, virus absorption, the drugs were added. Resulting cultures were analyzed for virus titer at 24 hours post infection a described in the procedure set forth in \"Biological Activity of 5-Ethyl, 5-Propyl and 5-Vinyl 2'-uridine\" by Cheng et al. The results are set forth in Table 2. The numbers set forth in Table 2 show the number of plaque forming units in the control which contained no methylmercapto compound and the number of units at concentrations of 100, 200 and 400 micromoles of the methylmercapto compound. The results clearly indicate substantial decrease in the number of plaque forming units in the presence of 1-(2-Deoxy-β-D-ribofuranosyl)-5-(methylmercapto)-2-pyrimidinone."}, "[2]": {"system": "HSV-1(Kos)", "assay": "Virus titer in HSV-1 infected HeLa cells, 24 hours post infection (Example 5)", "type": "cell-based, herpes simplex type 1", "conditions": "control 1.5 × 10^7", "description": "as §1"}, "[3]": {"system": "HSV-2", "assay": "Viral inhibition, HSV-2 (Example 7, method of Example 5)", "type": "cell-based, herpes simplex type 2", "conditions": "Human alphaherpesvirus 2", "description": "as §1\n(§2) The above described methyl compound was tested for viral inhibition substantially in accordance with the method of Example 5 except that the concentrations were 50 and 100 micromolar."}, "[4]": {"molecular_target": "thymidine kinase extracted from Varicella zoster virus infected cells (Human herpesvirus 3 strain Dumas, UniProt P09250)", "sequence (P09250 whole entry, looked up)": "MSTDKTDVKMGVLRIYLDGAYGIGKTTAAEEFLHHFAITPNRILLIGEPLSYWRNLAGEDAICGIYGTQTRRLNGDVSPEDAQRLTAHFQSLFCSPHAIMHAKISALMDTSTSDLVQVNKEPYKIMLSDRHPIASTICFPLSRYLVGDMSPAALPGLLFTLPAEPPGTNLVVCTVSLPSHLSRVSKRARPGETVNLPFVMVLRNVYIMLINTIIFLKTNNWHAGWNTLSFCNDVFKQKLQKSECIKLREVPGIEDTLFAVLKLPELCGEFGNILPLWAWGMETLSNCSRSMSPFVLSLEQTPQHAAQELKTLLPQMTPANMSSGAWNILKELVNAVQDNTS", "assay": "Binding affinity with thymidine kinase from Varicella zoster virus infected cells (Example 6)", "description": "(§3) The methylmercapto composition, as described in Example 5. was tested for binding affinity with thymidine kinase from various sources. Viruses which induce the production of thymidine kinase, induce thymidine kinase specific to the virus. […] It is believed that the compound of the invention, in order to become active in inhibiting the replication of the virus, must become phosphorylated. For such phosphorylation to occur, the thymidine kinase must first bind to the compound. Since binding with thymidine kinase produced by the virus is much more efficient and effective than binding with thymidine kinase from other sources, phosphorylation of the compound occurs more rapidly in the presence of active viruses producing thymidine kinase. The compound, activated by phosphorylation, then is able to interfere with replication of the virus."}, "[5]": {"molecular_target": "thymidine kinase extracted from cells infected with herpes simplex 1 virus (Human alphaherpesvirus 1 strain 17, UniProt P0DTH5)", "sequence (P0DTH5 whole entry)": "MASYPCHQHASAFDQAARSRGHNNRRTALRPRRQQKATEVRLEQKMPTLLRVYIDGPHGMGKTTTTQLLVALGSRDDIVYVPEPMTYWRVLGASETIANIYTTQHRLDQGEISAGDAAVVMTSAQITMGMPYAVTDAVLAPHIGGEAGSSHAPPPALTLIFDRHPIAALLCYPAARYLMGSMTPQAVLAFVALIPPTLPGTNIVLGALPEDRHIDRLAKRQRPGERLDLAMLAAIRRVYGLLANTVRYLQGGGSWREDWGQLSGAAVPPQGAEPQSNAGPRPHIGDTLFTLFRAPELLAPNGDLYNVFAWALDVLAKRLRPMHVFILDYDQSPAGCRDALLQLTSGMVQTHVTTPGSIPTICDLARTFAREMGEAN", "assay": "Binding affinity with thymidine kinase extracted from cells infected with herpes simplex 1 virus (Example 6)", "conditions": "herpes simplex 1 virus infected cells", "description": "as §3"}, "[6]": {"system": "thymidine kinase extracted from human cells", "assay": "Binding affinity with thymidine kinase extracted from human cells (Example 6)", "description": "as §3"}, "[7]": {"system": "HSV-1", "assay": "Viral inhibition, HSV-1 (Example 7, method of Example 5)", "type": "cell-based, herpes simplex type 1", "conditions": "Human alphaherpesvirus 1", "description": "as §1, §2"}, "[8]": {"conditions": "50 micromolar, vs untreated control"}}}
{"smiles": "CSc1cnc(=O)n([C@H]2C[C@H](O)[C@@H](CO)O2)c1", "note": "[methylmercapto compound, 1-(2-Deoxy-β-D-ribofuranosyl)-5-(methylmercapto)-2-pyrimidinone]", "values": [{"measurement": "plaque-forming units/mL, HSV-2 (333)", "setting": "[1]; 100 μM", "result": "1.3 × 10^7 plaque-forming units/mL"}, {"measurement": "plaque-forming units/mL, HSV-2 (333)", "setting": "[1]; 200 μM", "result": "3.1 × 10^6 plaque-forming units/mL"}, {"measurement": "plaque-forming units/mL, HSV-2 (333)", "setting": "[1]; 400 μM", "result": "3.2 × 10^5 plaque-forming units/mL"}, {"measurement": "plaque-forming units/mL, HSV-1(Kos)", "setting": "[2]; 100 μM", "result": "6.4 × 10^7 plaque-forming units/mL"}, {"measurement": "plaque-forming units/mL, HSV-1(Kos)", "setting": "[2]; 200 μM", "result": "1.7 × 10^6 plaque-forming units/mL"}, {"measurement": "plaque-forming units/mL, HSV-1(Kos)", "setting": "[2]; 400 μM", "result": "3.4 × 10^5 plaque-forming units/mL"}, {"measurement": "inhibition at 50 µM", "setting": "[3]; [8]", "result": 57.2, "unit": "%"}, {"measurement": "inhibition at 100 µM", "setting": "[3]; 100 micromolar", "result": 79.3, "unit": "%"}, {"measurement": "binding affinity with thymidine kinase", "setting": "[4]", "result": "great binding affinity"}, {"measurement": "binding affinity with thymidine kinase", "setting": "[5]", "result": "great binding affinity"}, {"measurement": "binding affinity with thymidine kinase", "setting": "[6]", "result": "little binding affinity"}, {"measurement": "inhibition at 50 µM", "setting": "[7]; [8]", "result": 41.1, "unit": "%"}, {"measurement": "inhibition at 100 µM", "setting": "[7]; 100 micromolar", "result": 83.8, "unit": "%"}]}
